This is an account of results in PubChem BioAssay AID248 (DTP/NCI, 2004).

In this test the test system is L1210 leukemia ip in BDF1 mice, survival T/C. Briefly: NCI In Vivo Anticancer Drug Screen. Data for tumor model L1210 Leukemia (intraperitoneal) in B6D2F1 (BDF1) mice. Particulars: endpoint: mean survival time, higher = longer survival. The method, boiled down: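 Antitumor effect is assessed in tumor-bearing animals. Survival in the compound arm is compared with a vehicle-dosed control arm and expressed as their quotient.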

Toxic doses and inconclusive results are not listed.

As for `C[N+](C)(C)c1ncnc2nc[nH]c12`, the T/C runs as follows: (dose: 22.5 mg/kg/injection, schedule: Q01DX Z (ip), vehicle: saline) 112 % of control; (dose: 31.0 mg/kg/injection, schedule: Q01DX005 (ip), vehicle: saline) 112 % of control; (dose: 31.0 mg/kg/injection, schedule: Q01DX009 (ip), vehicle: saline) 120 % of control; (dose: 45.0 mg/kg/injection, schedule: Q01DX Z (ip), vehicle: saline) 110 % of control; (dose: 53.0 mg/kg/injection, schedule: Q01DX Z (ip), vehicle: carboxymethylcellulose (CMC)) 110 % of control; (dose: 62.0 mg/kg/injection, schedule: Q01DX005 (ip), vehicle: saline) 110 % of control. Moreover, the T/C is 109 % of control (dose: 62.0 mg/kg/injection, schedule: Q01DX009 (oral), vehicle: saline); 109 % of control (dose: 62.0 mg/kg/injection, schedule: Q01DX009 (sc), vehicle: saline); 118 % of control (dose: 80.0 mg/kg/injection, schedule: Q01DX Z (ip), vehicle: carboxymethylcellulose (CMC)); 110 % of control (dose: 100.0 mg/kg/injection, schedule: Q## X008 (ip), vehicle: saline); 115 % of control (dose: 100.0 mg/kg/injection, schedule: Q## X024 (ip), vehicle: saline); 118 % of control (dose: 120.0 mg/kg/injection, schedule: Q01DX Z (ip), vehicle: carboxymethylcellulose (CMC)). Further, the T/C runs as follows: (dose: 125.0 mg/kg/injection, schedule: Q01DX001 (ip), vehicle: saline) 96 % of control; (dose: 125.0 mg/kg/injection, schedule: Q01DX001 (oral), vehicle: saline) 116 % of control; (dose: 125.0 mg/kg/injection, schedule: Q01DX001 (sc), vehicle: saline) 106 % of control; (dose: 125.0 mg/kg/injection, schedule: Q01DX005 (ip), vehicle: saline) 124 % of control; (dose: 125.0 mg/kg/injection, schedule: Q01DX009 (sc), vehicle: saline) 118 % of control; (dose: 125.0 mg/kg/injection, schedule: Q## X003 (ip), vehicle: saline) 108 % of control. The T/C was 162 % of control (dose: 180.0 mg/kg/injection, schedule: Q01DX Z (ip), vehicle: carboxymethylcellulose (CMC)); 109 % of control (dose: 200.0 mg/kg/injection, schedule: Q## X008 (ip), vehicle: saline); 107 % of control (dose: 250.0 mg/kg/injection, schedule: Q01DX001 (ip), vehicle: saline); 110 % of control (dose: 250.0 mg/kg/injection, schedule: Q01DX001 (oral), vehicle: saline); 109 % of control (dose: 250.0 mg/kg/injection, schedule: Q01DX001 (sc), vehicle: saline); 123 % of control (dose: 250.0 mg/kg/injection, schedule: Q01DX009 (sc), vehicle: saline). Also, the T/C runs as follows: (dose: 250.0 mg/kg/injection, schedule: Q## X003 (ip), vehicle: saline) 119 % of control; (dose: 270.0 mg/kg/injection, schedule: Q01DX015 (ip), vehicle: saline) 152 % of control; (dose: 400.0 mg/kg/injection, schedule: Q## X008 (ip), vehicle: saline) 120 % of control; (dose: 500.0 mg/kg/injection, schedule: Q01DX001 (oral), vehicle: saline) 112 % of control; (dose: 800.0 mg/kg/injection, schedule: Q## X024 (ip), vehicle: saline) 122 % of control; (dose: 1000.0 mg/kg/injection, schedule: Q01DX001 (oral), vehicle: saline) 124 % of control.
Regarding `O=S1(=O)CCCCC1=C(c1ccccc1)c1ccccc1`, the T/C (dose: 100.0 mg/kg/injection, schedule: Q04DX002 (ip), vehicle: saline with Tween-80) is 89 % of control and the T/C (dose: 200.0 mg/kg/injection, schedule: Q04DX002 (ip), vehicle: saline with Tween-80) was 89 % of control.
Regarding `CC1(CCCOc2ccc(N)cc2)N=C(N)N=C(N)N1c1ccccc1` (centres undefined), the T/C is 96 % of control (dose: 5.0 mg/kg/injection, schedule: Q01DX001 (ip), vehicle: saline); 96 % of control (dose: 10.0 mg/kg/injection, schedule: Q01DX001 (ip), vehicle: saline); 92 % of control (dose: 20.0 mg/kg/injection, schedule: Q01DX001 (ip), vehicle: saline); 92 % of control (dose: 40.0 mg/kg/injection, schedule: Q01DX001 (ip), vehicle: saline); 90 % of control (dose: 80.0 mg/kg/injection, schedule: Q01DX001 (ip), vehicle: saline).
For the compound `O=C1CCCN1`, the T/C (dose: 100.0 mg/kg/injection, schedule: Q04DX003 (ip), vehicle: saline) is 92 % of control; the T/C (dose: 200.0 mg/kg/injection, schedule: Q04DX003 (ip), vehicle: saline) was 97 % of control; the T/C (dose: 400.0 mg/kg/injection, schedule: Q04DX003 (ip), vehicle: saline) is 92 % of control.
As for `O=C(CBr)c1ccc(-c2ccccc2)cc1`, the T/C runs as follows: (dose: 6.0 mg/kg/injection, schedule: Q01DX009 (ip), vehicle: Klucel (hydroxypropylcellulose) (HPC)) 100 % of control; (dose: 12.0 mg/kg/injection, schedule: Q01DX009 (ip), vehicle: Klucel (hydroxypropylcellulose) (HPC)) 96 % of control; (dose: 25.0 mg/kg/injection, schedule: Q01DX009 (ip), vehicle: Klucel (hydroxypropylcellulose) (HPC)) 98 % of control; (dose: 100.0 mg/kg/injection, schedule: Q04DX003 (ip), vehicle: Klucel (hydroxypropylcellulose) (HPC)) 98 % of control; (dose: 200.0 mg/kg/injection, schedule: Q04DX003 (ip), vehicle: Klucel (hydroxypropylcellulose) (HPC)) 102 % of control.
Take `Nc1ncnc2c1ncn2C1CC(CO)C(O)C1O` (centres undefined): the T/C is 114 % of control (dose: 2.0 mg/kg/injection, schedule: Q01DX015 (ip), vehicle: Klucel (hydroxypropylcellulose) (HPC)); 91 % of control (dose: 3.0 mg/kg/injection, schedule: Q01DX015 (ip), vehicle: Klucel (hydroxypropylcellulose) (HPC)); 93 % of control (dose: 4.4 mg/kg/injection, schedule: Q01DX015 (ip), vehicle: Klucel (hydroxypropylcellulose) (HPC)); 98 % of control (dose: 6.25 mg/kg/injection, schedule: Q01DX009 (ip), vehicle: carboxymethylcellulose (CMC)); 96 % of control (dose: 6.7 mg/kg/injection, schedule: Q01DX015 (ip), vehicle: Klucel (hydroxypropylcellulose) (HPC)); 97 % of control (dose: 10.0 mg/kg/injection, schedule: Q01DX015 (ip), vehicle: Klucel (hydroxypropylcellulose) (HPC)). Moreover, the T/C by setting is: (dose: 12.5 mg/kg/injection, schedule: Q01DX009 (ip), vehicle: carboxymethylcellulose (CMC)) 97 % of control; (dose: 15.0 mg/kg/injection, schedule: Q01DX015 (ip), vehicle: Klucel (hydroxypropylcellulose) (HPC)) 98 % of control; (dose: 25.0 mg/kg/injection, schedule: Q01DX009 (ip), vehicle: carboxymethylcellulose (CMC)) 89 % of control; (dose: 50.0 mg/kg/injection, schedule: Q01DX001 (ip), vehicle: saline) 93 % of control; (dose: 100.0 mg/kg/injection, schedule: Q01DX001 (ip), vehicle: saline) 102 % of control; (dose: 200.0 mg/kg/injection, schedule: Q01DX001 (ip), vehicle: saline) 91 % of control. Besides, the T/C (dose: 400.0 mg/kg/injection, schedule: Q01DX001 (ip), vehicle: saline) was 88 % of control.
`COC(=O)c1n[nH]c(C(C)C)c1N=NN(C)C`: the T/C was 116 % of control (dose: 50.0 mg/kg/injection, schedule: Q01DX009 (ip), vehicle: saline with Tween-80); 116 % of control (dose: 100.0 mg/kg/injection, schedule: Q04DX003 (ip), vehicle: saline with Tween-80); 111 % of control (dose: 132.0 mg/kg/injection, schedule: Q04DX003 (ip), vehicle: saline with Tween-80); 119 % of control (dose: 200.0 mg/kg/injection, schedule: Q04DX003 (ip), vehicle: saline with Tween-80); 111 % of control (dose: 300.0 mg/kg/injection, schedule: Q04DX003 (ip), vehicle: saline with Tween-80); 96 % of control (dose: 400.0 mg/kg/injection, schedule: Q04DX003 (ip), vehicle: saline with Tween-80).
